From ChEMBL document CHEMBL3046891, “Potent antimalarial activity of newly synthesized substituted chalcone analogs in vitro” (Med Chem Res, 2009)
≈ marks a conversion by molar mass, not a printed value.

System: Plasmodium falciparum
Assay: Antimalarial activity against blood-stage Plasmodium falciparum 3D7 after 48 hr by Giemsa staining method
Assay type: functional, organism-based
Settings: 3D7, 48 h

Row | IC50 | Structure (SMILES)
1 | 17 µg/mL (≈ 45 µM) | O=C(/C=C/c1cc2ccccc2nc1Cl)c1ccc(N2CCOCC2)cc1
2 | 7.9 µg/mL (≈ 24.4 µM) | COc1ccc(/C=C/C(=O)c2ccc(N3CCOCC3)cc2)cc1
3 | 3.13 µg/mL (≈ 8.91 µM) | COc1ccc(/C=C/C(=O)c2ccc(N3CCCCC3)cc2)cc1OC
4 | 8.43 µg/mL (≈ 25 µM) | COc1cc(/C=C/C(=O)c2ccc(N3CCCC3)cc2)cc(OC)c1
5 | 6.3 µg/mL (≈ 20.5 µM) | COc1ccc(/C=C/C(=O)c2ccc(N3CCCC3)cc2)cc1

More lines, now with the values behind:

Row | Structure (SMILES) | IC50
6 | COc1ccc(/C=C/C(=O)c2ccc(-n3cccc3)cc2)cc1 | 1.61 µg/mL (≈ 5.31 µM)
7 | COc1ccc(/C=C/C(=O)c2ccc(-n3cncn3)cc2)cc1 | 4.56 µg/mL (≈ 14.9 µM)
8 | COc1cc(/C=C/C(=O)c2ccc(-n3cccc3)cc2)cc(OC)c1OC | 2.03 µg/mL (≈ 5.59 µM)
9 | COc1cc(/C=C/C(=O)c2ccc(N3CCNCC3)cc2)cc(OC)c1OC | 9 µg/mL (≈ 23.5 µM)
10 | COc1cc(/C=C/C(=O)c2ccc(-n3ccnc3)cc2)cc(OC)c1OC | 2.48 µg/mL (≈ 6.81 µM)
11 | COc1cc(/C=C/C(=O)c2ccc(N3CCCC3)cc2)cc(OC)c1OC | 13 µg/mL (≈ 35.4 µM)
